Results reported in BindingDB's records for doi:10.1124/jpet.301.1.37 (National Institutes of Health, 2002).
Several values for one entry are separate records, joined by “and”; a condition that tells them apart may be missing. Equal values may be shown once.

What was measured:
VIP peptides [1] = target: T1, VIP peptides (Cavia porcellus, UniProt P04566)
T1 sequence (P04566 whole entry): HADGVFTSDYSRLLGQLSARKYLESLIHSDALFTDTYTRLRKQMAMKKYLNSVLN

VIP peptides [2] = target: T2, VIP peptides (Homo sapiens, UniProt P01282)
T2 sequence (P01282 whole entry): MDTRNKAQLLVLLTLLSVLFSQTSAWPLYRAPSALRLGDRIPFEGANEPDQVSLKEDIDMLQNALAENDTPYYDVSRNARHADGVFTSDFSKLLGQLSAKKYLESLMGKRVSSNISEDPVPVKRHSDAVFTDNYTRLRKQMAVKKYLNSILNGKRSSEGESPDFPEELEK

Row | Compound | Ki (VIP peptides [1]) | Ki (VIP peptides [2])
1 | CC[C@H](C)[C@H](NC(=O)[C@H](CO)NC(=O)[C@H](CC(N)=O)NC(=O)[C@H](CC(C)C)NC(=O)[C@H](Cc1ccc(O)cc1)NC(=O)[C@H](CCCCN)NC(=O)[C@H](CCCCN)NC(=O)[C@@H](NC(=O)[C@H](C)NC(=O)[C@H](CCSC)NC(=O)[C@H](CCC(N)=O)NC(=O)[C@H](CCCCN)NC(=O)[C@H](CCCN=C(N)N)NC(=O)[C@H](CC(C)C)NC(=O)[C@H](CCCN=C(N)N)NC(=O)[C@@H](NC(=O)[C@H](Cc1ccc(O)cc1)NC(=O)[C@H](CC(N)=O)NC(=O)[C@H](CC(=O)O)NC(=O)[C@@H](NC(=O)[C@H](Cc1ccccc1)NC(=O)[C@@H](NC(=O)[C@H](C)NC(=O)[C@H](CC(=O)O)NC(=O)[C@H](CO)NC(=O)[C@@H](N)Cc1cnc[nH]1)C(C)C)[C@@H](C)O)[C@@H](C)O)C(C)C)C(=O)N[C@@H](CC(C)C)C(=O)N[C@@H](CC(N)=O)C(=O)O [CAS_37221-79-7] | 2.5 nM | 1.7 nM and 1.6 nM
2 | CC[C@H](C)[C@H](NC(=O)[C@H](CO)NC(=O)[C@H](CC(N)=O)NC(=O)[C@H](CC(C)C)NC(=O)[C@H](Cc1ccc(O)cc1)NC(=O)[C@H](CCCCN)NC(=O)[C@H](CCCCN)NC(=O)[C@@H](NC(=O)[C@H](C)NC(=O)[C@@H](CCSC)NC(=O)[C@H](CCC(N)=O)NC(=O)[C@H](CCCCN)NC(=O)[C@H](CCCN=C(N)N)NC(=O)[C@H](CC(C)C)NC(=O)[C@H](CCCN=C(N)N)NC(=O)C(NC(=O)[C@H](Cc1ccc(O)cc1)NC(=O)[C@H](CC(N)=O)NC(=O)[C@H](CC(=O)O)NC(=O)[C@@H](NC(=O)[C@H](Cc1ccccc1)NC(=O)[C@@H](NC(=O)[C@H](C)NC(=O)[C@H](CC(=O)O)NC(=O)[C@H](CO)NC(=O)[C@@H](N)Cc1cnc[nH]1)C(C)C)[C@@H](C)O)[C@@H](C)O)C(C)C)C(=O)N[C@@H](CC(C)C)C(=O)N[C@@H](CC(N)=O)C(N)=O (stereo partly drawn) [VIP [D- Met 17]] | 33.1 nM | –
3 | CC[C@H](C)[C@H](NC(=O)[C@H](CO)NC(=O)[C@H](CC(N)=O)NC(=O)[C@H](CC(C)C)NC(=O)[C@H](Cc1ccc(O)cc1)NC(=O)[C@H](CCCCN)NC(=O)[C@H](CCCCN)NC(=O)[C@@H](NC(=O)[C@@H](C)NC(=O)[C@H](CCSC)NC(=O)[C@H](CCC(N)=O)NC(=O)[C@H](CCCCN)NC(=O)[C@H](CCCN=C(N)N)NC(=O)[C@H](CC(C)C)NC(=O)[C@H](CCCN=C(N)N)NC(=O)[C@@H](NC(=O)[C@H](Cc1ccc(O)cc1)NC(=O)[C@H](CC(N)=O)NC(=O)[C@H](CC(=O)O)NC(=O)[C@@H](NC(=O)[C@H](Cc1ccccc1)NC(=O)[C@@H](NC(=O)[C@H](C)NC(=O)[C@H](CC(=O)O)NC(=O)[C@H](CO)NC(=O)[C@@H](N)Cc1cnc[nH]1)C(C)C)[C@@H](C)O)[C@@H](C)O)C(C)C)C(=O)N[C@@H](CC(C)C)C(=O)N[C@@H](CC(N)=O)C(N)=O [VIP [D-Ala18]] | 17.8 nM | 3.5 nM and 15.4 nM and 12.1 nM
4 | CC[C@H](C)[C@H](NC(=O)[C@H](CO)NC(=O)[C@H](CC(N)=O)NC(=O)[C@H](CC(C)C)NC(=O)[C@H](Cc1ccc(O)cc1)NC(=O)[C@H](CCCCN)NC(=O)[C@H](CCCCN)NC(=O)[C@@H](NC(=O)[C@H](C)NC(=O)[C@H](CCSC)NC(=O)[C@H](CCC(N)=O)NC(=O)[C@H](CCCCN)NC(=O)[C@H](CCCN=C(N)N)NC(=O)[C@H](CC(C)C)NC(=O)[C@H](CCCN=C(N)N)NC(=O)[C@@H](NC(=O)[C@H](Cc1ccc(O)cc1)NC(=O)[C@@H](CC(N)=O)NC(=O)[C@H](CC(=O)O)NC(=O)[C@@H](NC(=O)[C@H](Cc1ccccc1)NC(=O)[C@@H](NC(=O)[C@H](C)NC(=O)[C@H](CC(=O)O)NC(=O)[C@H](CO)NC(=O)[C@@H](N)Cc1cnc[nH]1)C(C)C)[C@@H](C)O)[C@@H](C)O)C(C)C)C(=O)N[C@@H](CC(C)C)C(=O)N[C@@H](CC(N)=O)C(N)=O [VIP [D-Asn9]] | 2.8 nM | –
5 | CC[C@H](C)[C@H](NC(=O)[C@H](CO)NC(=O)[C@H](CC(N)=O)NC(=O)[C@H](CC(C)C)NC(=O)[C@H](Cc1ccc(O)cc1)NC(=O)[C@H](CCCCN)NC(=O)[C@H](CCCCN)NC(=O)[C@@H](NC(=O)[C@H](C)NC(=O)[C@H](CCSC)NC(=O)[C@H](CCC(N)=O)NC(=O)[C@H](CCCCN)NC(=O)[C@H](CCCN=C(N)N)NC(=O)[C@H](CC(C)C)NC(=O)[C@H](CCCN=C(N)N)NC(=O)[C@@H](NC(=O)[C@H](Cc1ccc(O)cc1)NC(=O)[C@H](CC(N)=O)NC(=O)[C@H](CC(=O)O)NC(=O)[C@@H](NC(=O)[C@H](Cc1ccccc1)NC(=O)[C@@H](NC(=O)[C@H](C)NC(=O)[C@H](CC(=O)O)NC(=O)[C@H](CO)NC(=O)[C@@H](N)Cc1cnc[nH]1)C(C)C)[C@@H](C)O)[C@@H](C)O)C(C)C)C(=O)N[C@H](CC(C)C)C(=O)N[C@@H](CC(N)=O)C(N)=O [VIP [D-Leu27]] | 5 nM | –
6 | CC[C@H](C)[C@H](NC(=O)[C@H](CO)NC(=O)[C@H](CC(N)=O)NC(=O)[C@H](CC(C)C)NC(=O)[C@H](Cc1ccc(O)cc1)NC(=O)[C@H](CCCCN)NC(=O)[C@H](CCCCN)NC(=O)[C@@H](NC(=O)[C@H](C)NC(=O)[C@@H](CCSC)NC(=O)[C@H](CCC(N)=O)NC(=O)[C@H](CCCCN)NC(=O)[C@H](CCCN=C(N)N)NC(=O)[C@H](CC(C)C)NC(=O)[C@H](CCCN=C(N)N)NC(=O)C(NC(=O)[C@H](Cc1ccc(O)cc1)NC(=O)[C@H](CC(N)=O)NC(=O)[C@H](CC(=O)O)NC(=O)C(NC(=O)[C@H](Cc1ccccc1)NC(=O)[C@@H](NC(=O)[C@H](C)NC(=O)[C@H](CC(=O)O)NC(=O)[C@H](CO)NC(=O)[C@@H](N)Cc1cnc[nH]1)C(C)C)[C@@H](C)O)[C@@H](C)O)C(C)C)C(=O)N[C@@H](CC(C)C)C(=O)N[C@@H](CC(N)=O)C(N)=O (stereo partly drawn) [VIP [D-Met17]] | – | 6.7 nM and 29.5 nM and 36.3 nM
7 | CC[C@H](C)[C@H](NC(=O)[C@@H](CO)NC(=O)[C@H](CC(N)=O)NC(=O)[C@H](CC(C)C)NC(=O)[C@H](Cc1ccc(O)cc1)NC(=O)[C@H](CCCCN)NC(=O)[C@H](CCCCN)NC(=O)[C@@H](NC(=O)[C@H](C)NC(=O)[C@H](CCSC)NC(=O)[C@H](CCC(N)=O)NC(=O)[C@H](CCCCN)NC(=O)[C@H](CCCN=C(N)N)NC(=O)[C@H](CC(C)C)NC(=O)[C@H](CCCN=C(N)N)NC(=O)[C@@H](NC(=O)[C@H](Cc1ccc(O)cc1)NC(=O)[C@H](CC(N)=O)NC(=O)[C@H](CC(=O)O)NC(=O)[C@@H](NC(=O)[C@H](Cc1ccccc1)NC(=O)[C@@H](NC(=O)[C@H](C)NC(=O)[C@H](CC(=O)O)NC(=O)[C@H](CO)NC(=O)[C@@H](N)Cc1cnc[nH]1)C(C)C)[C@@H](C)O)[C@@H](C)O)C(C)C)C(=O)N[C@@H](CC(C)C)C(=O)N[C@@H](CC(N)=O)C(N)=O [VIP [D-Ser25]] | 43.6 nM | –
8 | H-HSDAAFTDNYTRLRKQMAVKKYLNSILN-NH2 [VIP Ala5] | 34.7 nM | –
9 | H-HSDAVFTDNYTRLRKQMAVKKYLASILN-NH2 [VIP Ala24] | 8.9 nM | –
10 | H-HSDAVFTDNYTRLRKQMAVKKYLNSALN-NH2 [VIP Ala26] | 4.3 nM and 12.3 nM | –
